# Measurements published in patent publication US20230136218A1, “METHODS AND COMPOSITIONS FOR TREATING ACUTE MYELOID LEUKEMIA” (President and Fellows of Harvard College, priority 2019, published 2023).
# “Also recorded” adds a separate entry of the source.
# Tests used:
# MLL-AF9 AML = test: Kaplan-Meier survival of MLL-AF9 AML-bearing mice; type: in vivo, mouse
# Excerpt: (§1) The MLL-AF9 and HoxA9/Meis1 leukemia models have been described previously (Sykes et al., 2016). Briefly, the MLL-AF9 model was established by crossing MLL-AF9 knockin mice (Corral et al., 1996) with mice expressing GFP under the control of the ubiquitin promoter as well as mice expressing luciferase under the control of the β-actin promoter. The retroviral transduction model of HoxA9/Meis1 leukemia was generated by the infection of bone marrow mononuclear cells with an MSCV-HoxA9-IRES-Meis1 construct (originally designed by Dr. Guy Sauvageau; Kroon et al., 1998). For both models, leukemic bone marrow cells from a terminally ill mouse were harvested and expanded ex vivo in RPMI1640 medium (Lonza) supplemented with 10% fetal bovine serum (FBS; Gibco), 100 I.U./ml penicillin, 100 μg/ml streptomycin, 2 mM L-glutamine (all from Corning), 20 ng/ml recombinant mouse SCF (rmSCF), 10 ng/ml recombinant mouse interleukin 3 (rmIL-3) and […] (all from R&D Systems).
# (§2) Recipient male mice (age 8-10 weeks) were injected intravenously (retro-orbital) with 1 million leukemia cells in a volume of 100 μl of saline. Disease progression was tracked intravitally using bioluminescence imaging. Mice were anaesthetized using isoflurane, injected with luciferin (150 μl of a 15 mg/ml solution in PBS), and imaged on an IVIS 200 Spectrum In Vivo Imaging System (PerkinElmer). When indicated, mice were treated with iCT (cytarabine, 100 mg/kg, once daily for 5 days and doxorubicin, 3 mg/kg, once daily for the first 3 days) or vehicle (saline) delivered via I.P. injection. To inhibit glutamine metabolism, mice were treated with DON (0.3 mg/kg, once daily) or vehicle (saline) delivered via I.P. injection. To inhibit GLS, mice were treated with a GLS inhibitor (150 mg/kg, twice daily) or vehicle (20% HP-β-cyclodextrin+20% Solutol, 50 mM citrate buffer, pH 3) delivered by oral gavage. To inhibit DHODH, mice were treated with BRQ (50 mg/kg, once daily) or vehicle (70% PBS, 30% poly(ethylene glycol)-400, pH 7.2) delivered via I.P. injection. To inhibit GCL, mice were treated with BSO (twice daily by I.P. injection at 2.23 mg/kg+in the drinking water at 4.45 mg/ml) or vehicle (saline by I.P. injection+untreated drinking water).
# HoxA9/Meis1 AML = test: Kaplan-Meier survival of HoxA9/Meis1 AML-bearing mice; type: in vivo, mouse
# Excerpt: as §1
# Recipient male mice (age 8-10 weeks) were injected intravenously (retro-orbital) with 1 million leukemia cells in a volume of 100 μl of saline. Disease progression was tracked intravitally using bioluminescence imaging. Mice were anaesthetized using isoflurane, injected with luciferin (150 μl of a 15 mg/ml solution in PBS), and imaged on an IVIS 200 Spectrum In Vivo Imaging System (PerkinElmer). […]
# MLL-AF9 AML cells [1] = test: Flow cytometric quantification of CD34 and cKit levels in AML cells obtained from treated mice; type: in vivo, mouse
# Description: as §2
# (§3) Cells were suspended in flow buffer and stained for 30 minutes at 4° C. in the dark with antibodies against c-Kit, Sca-1, CD34, CD45, Ter-119, CD31, LepR, CD90, CD105, SLC1A3, SLC38A1 or a lineage cocktail (CD3, Gr-1, CD11b, B220, Ter-119). 7-AAD was included as a viability dye to help identify dead cells. When necessary, cells were stained with a secondary antibody (Alexa Fluor 546-conjugated anti-rabbit IgG) or APC-eFluor 780-conjugated streptavidin (eBioscience) for 15 minutes at 4° C. in the dark. […] Cell viability was analyzed using Annexin V-APC (BioLegend) and propidium iodide (PI; ThermoFisher Scientific) with Annexin V^−PI^− cells considered as viable cells. The number of viable cells was determined by taking into account the total number of cells per well as measured using a Cellometer (Nexcelom). Mitochondrial membrane potential was measured by Tetramethylrhodamine, ethyl ester (TMRE; ThermoFisher) staining and levels of ROS were measured by CellROX Orange staining. Cells were incubated with 200 nM TMRE or 2.5 μM CellROX Orange in RPMI1640 medium supplemented with 10% FBS, 100 I.U./ml penicillin, 100 μg/ml streptomycin and 2 mM L-glutamine at 37° C. for 30 minutes, washed in flow buffer and analyzed. For all flow cytometry experiments, single color controls were used to set compensations and fluorescence minus one controls were used to set gates. All flow cytometry data was collected on a BD LSR II flow cytometer and analyzed using FlowJo software.
# MLL-AF9 AML cells [2] = test: Colony forming unit assay of AML cells obtained from treated mice; type: in vivo, mouse
# Description: as §2, with “water). […] FACS-sorted viable AML cells (GFP^+7-AAD^−) were resuspended in MethoCult GF M3434 (StemCell Technologies) at 1000 cells/ml and plated in SmartDish 6-well plates (StemCell Technologies) at 1 ml/well in duplicate. Cells were cultured in a humidified incubator at 37° C. in ambient air with 5% CO2. After 5 days colonies were counted.” for “water).”
# [3] = system: pyrimidine synthesis in HoxA9/Meis1 AML cells; test: LC-MS-based quantification of glutamine metabolism and pyrimidine synthesis metabolites in HoxA9/Meis1 AML cells of treated mice; type: in vivo, mouse; details: mice treated with vehicle or BRQ 24 prior
# Description: as §2, with “To inhibit GCL, mice were treated with BSO (twice daily by I.P. injection at 2.23 mg/kg+in the drinking water at 4.45 mg/ml) or vehicle (saline by I.P. injection+untreated drinking water).” left out
# (§4) For untargeted metabolomics analysis, data were processed with Compound Discoverer 3.0 (ThermoFisher Scientific) using the mzCloud mass spectral library for compound annotation. […] For targeted metabolomics analysis, data were analyzed with Tracefinder4.1 (ThermoFisher Scientific).
# MLL-AF9 AML cells [4] = test: AML burden of MLL-AF9 AML-bearing mice by bioluminescence imaging or flow cytometry; type: in vivo, mouse
# Description: as §2, with “To inhibit DHODH, mice were treated with BRQ (50 mg/kg, once daily) or vehicle (70% PBS, 30% poly(ethylene glycol)-400, pH 7.2) delivered via I.P. injection. To inhibit GCL, mice were treated with BSO (twice daily by I.P. injection at 2.23 mg/kg+in the drinking water at 4.45 mg/ml) or vehicle (saline by I.P. injection+untreated drinking water).” left out
# as §3, with “Ter-119).” for “Ter-119). 7-AAD was included as a viability dye to help identify dead cells. When necessary, cells were stained with a secondary antibody (Alexa Fluor 546-conjugated anti-rabbit IgG) or APC-eFluor 780-conjugated streptavidin (eBioscience) for 15 minutes at 4° C. in the dark.”, “All flow cytometry data was collected on a BD LSR II flow cytometer and analyzed using FlowJo software.” left out
# MLL-AF9 AML cells [5] = test: Apoptotic cells in MLL-AF9 AML cells of treated mice, flow cytometry for active Caspase 3; type: in vivo, mouse; details: combination of iCT and DON (sequential); one day after the last dose of DON
# Description: as §2
# [6] = system: glutamine metabolism in MLL-AF9 AML cells; test: LC-MS-based quantification of metabolites in MLL-AF9 AML cells of treated mice; type: in vivo, mouse; details: one day after the last dose of DON
# Description: as §2
# Mice were euthanized by CO2 asphyxiation and femurs and tibias were isolated and cleaned to remove muscle. Bones were then crushed using a mortar and pestle in ice-cold flow buffer (PBS containing 2% FBS), and the obtained cell suspension was passed through a 70 μm cell strainer. Red blood cells were removed by incubating cells for 5 minutes in ACK lysing buffer (Gibco) on ice, cells were washed and resuspended in ice-cold flow buffer containing the viability dye 7-aminoactinomycin D (7-AAD; BD Biosciences). Viable AML cells (GFP^+7-AAD^−) were sorted on a BD FACSAria II (BD Biosciences) with the sample collector cooled to 4° C. Sorted cells were immediately processed.
# FACS-sorted cells or plasma samples were lysed in ice-cold methanol and polar metabolites were extracted using methanol-chloroform phase separation (methanol:water:chloroform in 2:1:2 ratio). Samples were then dried under nitrogen flow, resuspended in 70% acetonitrile in water containing 2.5 μM of an internal standard (^13C-, ^15N-labeled amino acid mix; Cambridge Isotope Laboratories) and run on a ThermoFisher Q-exactive equipped with Zic-pHILIC column (150×2.1 mm, 5 μm; Merck). A volume of 5 μl was injected and the full mass spectrum was obtained in both positive and negative mode (0 to 45 minutes, resolution 70000, AGC target 3e6, mz range 66 to 990). Mobile phase A for chromatography consisted of 20 mM ammonium carbonate, 0.1% ammonium hydroxide, in water and mobile phase B of 97% acetonitrile in water. For untargeted metabolomics, a pooled sample was created from all samples and used for MS/MS runs. For targeted analysis, a standard mix at 1 μM of each compound of interest was prepared and run after the samples to confirm retention times.
# as §4
# HoxA9/Meis1 AML cells = test: AML cell elimination in HoxA9/Meis1 AML-bearing mice; type: in vivo, mouse; details: DON after completion of iCT
# Description: as §2
# [7] = system: solid tumors and leukemia; details: Phase I and II clinical trials, cited from earlier work
# [8] = Tolerability of DON in AML-bearing mice; type: in vivo, mouse
# Description: as §2
# MLL-AF9 AML cells [9] = test: Double-stranded DNA breaks in MLL-AF9 AML cells of treated mice, flow cytometry for gamma-H2AX; type: in vivo, mouse; details: short term DON after iCT; one day after the last dose of DON
# Description: Recipient male mice (age 8-10 weeks) were injected intravenously (retro-orbital) with 1 million leukemia cells in a volume of 100 μl of saline. Disease progression was tracked intravitally using bioluminescence imaging. Mice were anaesthetized using isoflurane, injected with luciferin (150 μl of a 15 mg/ml solution in PBS), and imaged on an IVIS 200 Spectrum In Vivo Imaging System (PerkinElmer). When indicated, mice were treated with iCT (cytarabine, 100 mg/kg, once daily for 5 days and doxorubicin, 3 mg/kg, once daily for the first 3 days) or vehicle (saline) delivered via I.P. injection. […]
# Cells were suspended in flow buffer and stained for 30 minutes at 4° C. in the dark with antibodies against c-Kit, Sca-1, CD34, CD45, Ter-119, CD31, LepR, CD90, CD105, SLC1A3, SLC38A1 or a lineage cocktail (CD3, Gr-1, CD11b, B220, Ter-119). […] Cell viability was analyzed using Annexin V-APC (BioLegend) and propidium iodide (PI; ThermoFisher Scientific) with Annexin V^−PI^− cells considered as viable cells. The number of viable cells was determined by taking into account the total number of cells per well as measured using a Cellometer (Nexcelom). Mitochondrial membrane potential was measured by Tetramethylrhodamine, ethyl ester (TMRE; ThermoFisher) staining and levels of ROS were measured by CellROX Orange staining. […]
# [10] = agent alone, compared to vehicle-treated mice
# [11] = combination with iCT (sequential), four days after the last dose of iCT
smiles,measurement,setting,value
"Cc1c(-c2ccc(-c3ccccc3F)cc2)nc2ccc(F)cc2c1C(=O)O [BRQ, brequinar]",survival,"MLL-AF9 AML; two doses of BRQ 50 mg/kg I.P. following iCT, compared to iCT alone",significantly extend survival; also recorded: extended survival
same,survival,"MLL-AF9 AML; two doses of BRQ 50 mg/kg I.P. following iCT, compared to iCT alone, listed as brequinar",remarkably extend animal survival
same,survival,"HoxA9/Meis1 AML; BRQ 50 mg/kg I.P. following iCT, compared to iCT alone (FIG. 19E)",significantly extend survival
same,percentage of CD34+cKit+ cells,MLL-AF9 AML cells [1]; [10],strongly reduced
same,percentage of CD34-cKit+ cells,"MLL-AF9 AML cells [1]; combination with iCT, compared to BRQ alone",further reduced
same,number of colony-forming units (CFUs),MLL-AF9 AML cells [2]; [10],strongly reduced
same,number of colony-forming units (CFUs),MLL-AF9 AML cells [2]; [11],further reduced
same,pyrimidine synthesis (metabolite levels),[3],effectively inhibits pyrimidine synthesis
same,elimination of AML cells from the bone marrow,"MLL-AF9 AML cells [4]; short term BRQ after iCT, four days after the last dose of iCT",improved elimination of AML cells from the bone marrow
"CCCCS(=N)(=O)CCC(N)C(=O)O [BSO, L-buthionine-sulfoximine]",survival,"MLL-AF9 AML; BSO (2.23 mg/kg B.I.D. I.P. + 4.45 mg/ml in drinking water) for 4 days following iCT, compared to iCT alone",no difference in survival compared to iCT alone
"[N-]=[N+]=CC(=O)CC[C@H](N)C(=O)O [DON, 6-diazo-5-oxo-L-norleucine]",percentage of apoptotic cells (active Caspase 3),MLL-AF9 AML cells [5],more apoptotic cells
same,survival,MLL-AF9 AML; DON 0.3 mg/kg I.P. given for 5 days at the same time as iCT (concomitant),no difference in survival
same,survival,"MLL-AF9 AML; DON 0.3 mg/kg I.P. started after completion of iCT, covering the moment of maximal response, daily for a short time or continuously every other day",clear survival benefit; also recorded: improved survival
same,"survival, DON every other day compared to short term DON treatment",MLL-AF9 AML; DON every other day following iCT,further improved mouse survival
same,UMP levels in chemoresistant AML cells,[6]; DON after iCT,prevented the increase of UMP levels
same,glutamate level in AML cells,[6]; DON after iCT,normalizing the increase in glutamate; also recorded: partially reducing the increase in glutamate
same,reduced glutathione (GSH) levels in AML cells,[6]; DON after iCT,effective in suppressing the increase in GSH levels
same,aspartate level in AML cells,[6]; iCT followed by DON,remained high
same,glutamine level in AML cells,[6]; mice treated with iCT and/or DON,accumulation of glutamine
same,survival,HoxA9/Meis1 AML; two doses of DON 0.3 mg/kg I.P. after completion of iCT,improved mouse survival
same,AML cell elimination,HoxA9/Meis1 AML cells,enhanced AML cell elimination
same,clinical side effects,[7],"dose-dependent side effects including nausea, vomiting and mucositis"
same,clinical efficacy,[7]; single agent,limited efficacy as a single agent
same,percentage of CD34+cKit+ cells,MLL-AF9 AML cells [1]; [10],no effect on marker expression
same,percentage of CD34+cKit+ cells,MLL-AF9 AML cells [1]; [11],normalized
same,tolerability,[8]; DON every other day after iCT,acceptable
same,tolerability / toxicity,[8]; daily DON injections after iCT,toxicity issues; also recorded: did not tolerate
same,double stranded DNA breaks in residual cells (gamma-H2AX),MLL-AF9 AML cells [9],increased double stranded DNA breaks
same,number of colony-forming units (CFUs),MLL-AF9 AML cells [2]; [10],moderately increased the number of CFUs
same,number of colony-forming units (CFUs),MLL-AF9 AML cells [2]; [11],normalized
same,relapse,"MLL-AF9 AML cells [4]; short term DON after iCT, bioluminescence imaging",delayed relapse
same,elimination of AML cells (AML burden),"MLL-AF9 AML cells [4]; short term DON after iCT, one day after the last dose of DON",improved elimination of AML cells; also recorded: reduced the number of chemoresistant cells
